For orientation: solubility means how much of the substance goes into solution per volume. Higher therefore signals much dissolved substance.

This is an account of results in patent publication EP4813381A1, “PHARMACEUTICAL USE OF GUAIANE SESQUITERPENE DERIVATIVE” (Nanjing University Of Chinese Medicine, priority 2023, dated 2025).

The subject of data set [1] is MDSCs. In words: Inhibition of MDSC chemotaxis (Transwell, Hepa1-6 tumor-conditioned medium). It is filed as cell-based, mice. As to conditions: 12 h treatment, 24 h Transwell. How it is done: Hepa1-6 mouse hepatocellular carcinoma cells were uniformly seeded into 6-well plates. After cells reached confluence, supernatant was aspirated, and 1-1.5 mL fresh medium was added to each well. Following 24 h culture, supernatant was collected, centrifuged at 1600 rpm for 5 min, aspirated, and filtered through a 0.22 µm membrane to obtain tumor-conditioned medium for subsequent use. Euthanize mice by cervical dislocation and immerse in 75% ethanol solution for 5 min. Under sterile conditions, remove the tibia, cut both ends of the bone, and aspirate the bone marrow into a 1 mL syringe. Repeat flushing into a 15 mL centrifuge tube. Centrifuge at 1600 rpm for 5 min to collect bone marrow cells. Wash twice with 1×PBS. Resuspend cells in complete RPMI 1640 medium containing cytokines GM-CSF (10 ng/mL) and IL-4 (10 ng/mL) to stimulate differentiation into MDSCs. Count cells, adjust density to 1×10^6 cells/mL, and uniformly seed into 24-well plates at 300 µL per well. […] Centrifuge at 1600 rpm for 5 min, remove supernatant, resuspend cells in 300 µL fresh medium, and place into Transwell chambers. Add 600 µL normal medium (control group) or tumor-conditioned medium (model group) to the lower chamber. Co-culture for 24 h.

In data set [2] the test system is CCR2 mRNA. Kind of data set: CCR2 mRNA level in MDSCs (PCR). It counts as cell-based, mice. As to conditions: CCR2 mRNA levels in MDSCs, 2 h. How it is done: Mice were euthanized by cervical dislocation and immersed in 75% ethanol solution for 5 min. Under sterile conditions, the tibia was removed, both ends of the bone were cut, and bone marrow was repeatedly flushed into a 15 mL centrifuge tube using a 1 mL syringe filled with culture medium. Centrifuge at 1600 rpm for 5 min to collect bone marrow cells. Wash twice with 1×PBS, then resuspend in RPMI 1640 complete medium containing GM-CSF (10 ng/mL) + IL-4 (10 ng/mL) and transfer to a cell culture dish to stimulate differentiation of bone marrow cells into MDSCs. Count cells and adjust density to 1 × 10^6 cells/mL in complete medium. Seed cells uniformly into 6-well plates at 2 mL per well. […] After incubation, collect cells into centrifuge tubes, centrifuge at 1600 rpm for 5 min, wash once with 1×PBS, and add 500 µL RNA extraction reagent to each tube. After centrifugation to obtain the pellet, add 20 µL DEPC-treated water to each tube to dissolve the pellet. Determine RNA concentration and reverse transcribe to cDNA. Add the cDNA, primers, and reverse transcriptase to a 96-well plate. Centrifuge at 4000 rpm for 5 min, then place in a PCR instrument for detection.

The subject of data set [3] is Hepa1-6 cells. In words: Hepa1-6 mouse hepatocellular carcinoma subcutaneous xenograft model. It is filed as in vivo, C57BL/6 mice. The procedure: Hepa1-6 cells were cultured and expanded in vitro. An appropriate amount of cells in the logarithmic growth phase was resuspended in a mixture of serum-free DMEM medium and Matrigel (1:1). under aseptic conditions to prepare a 2.5×10^6/100 µL cell suspension. A 100 µL aliquot of this suspension was injected subcutaneously into the left forearm axilla of male C57BL/6 mice. […] Daily oral administration was performed for 2 weeks. During the treatment period, mouse body weight and tumor diameter were measured daily. At the end of the experiment, mice were euthanized by cervical dislocation, and tumors were removed for weighing. Tumor volume (TV) was calculated using the formula: TV = 1/2 × a × b^2, where a represents the longest diameter of the tumor and b represents the shortest diameter.

In data set [4] the test system is H22 cells. The arrangement: species or system BALB/c mice. As to conditions: mouse, in vivo, po. The procedure: (§1) H22 cells were cultured and expanded in vitro. […] A 100 µL aliquot of this suspension was injected subcutaneously into the left forelimb axilla of male BALB/c mice. […] Daily oral administration was performed for 2 weeks. During the treatment period, mouse body weight and tumor diameter were measured daily. At the end of the experiment, mice were euthanized by cervical dislocation, and tumors were removed for weighing. Tumor volume (TV) was calculated using the formula: TV = 1/2 × a × b^2, where a represents the longest diameter of the tumor and b represents the shortest diameter.

The test system of data set [5] is MDSCs; T cells. The arrangement: species or system BALB/c mice. As to conditions: mouse, in vivo, po. The procedure: as §1
Once all tumors were dissected, nail-sized tumor pieces were transferred to 1.5 mL Eppendorf tubes and minced with scissors. […] After digestion, pass the mixture through a 200-mesh sieve to obtain the tumor cell suspension. […] Position the spleen on a 200-mesh cell strainer. Gently press the spleen using a 10 mL syringe needle. […] Transfer the washed splenocyte suspension into a 15 mL centrifuge tube. Centrifuge at 1600 rpm for 5 min to collect cells. Wash once with 1×PBS. Add 3 mL red blood cell lysis buffer (diluted with ddH2O) to each tube and incubate for 5 min. After lysis, add 10 mL 1×PBS to each tube to terminate lysis. Centrifuge at 1600 rpm for 5 min. Add 1 mL 1×PBS to each 15 mL centrifuge tube, transfer to 1.5 mL EP tubes, and centrifuge at 1600 rpm for 5 min. Add 1 mL 1×PBS to each tube containing stained tumor cells and lysed spleen cells for one wash, centrifuge at 1600 rpm for 5 min, and remove the supernatant.
Once all tumors were dissected, nail-sized tumor pieces were transferred to 1.5 mL Eppendorf tubes and minced with scissors. […] After digestion, pass the mixture through a 200-mesh sieve to obtain the tumor cell suspension. Centrifuge the resulting tumor suspension at 1600 rpm for 5 min, aspirate the supernatant, resuspend cells in 1 mL of 1×PBS per tube. […] Position the spleen on a 200-mesh cell strainer. Gently press the spleen using a 10 mL syringe needle. […] Transfer the splenocyte suspension into a 15 mL centrifuge tube. Centrifuge at 1600 rpm for 5 min to collect cells. Wash once with 1×PBS. Add 3 mL red blood cell lysis buffer (diluted with ddH2O) to each tube and incubate for 5 min. After lysis, add 10 mL 1×PBS to each tube to terminate lysis. Centrifuge at 1600 rpm for 5 min.

The test system of data set [6] is CT26 cells. It is filed as in vivo, BALB/c mice.
For data set [7], the system named is 4T1 cells. It counts as in vivo, BALB/c mice. How it is done:
4T1 cells were cultured and expanded in vitro. […] A 100 µL aliquot of this suspension was injected subcutaneously into the left forelimb axilla of female BALB/c mice. […] Daily oral administration was performed for 3 weeks. During the treatment period, mouse body weight and tumor diameter were measured daily. At the end of the experiment, mice were euthanized by cervical dislocation, and tumors were removed for weighing. Tumor volume (TV) was calculated using the formula: TV = 1/2 × a × b^2, where a represents the longest diameter of the tumor and b represents the shortest diameter.

Data set [8] deals with farnesyltransferase (FTase) (Homo sapiens, UniProt P49354+P49356). As to conditions: in vitro; cited from earlier work.
The conditions of data set [9]: gastric fluid, within 8 hours; cited from earlier work.
The conditions of data set [10]: in vivo; cited from earlier work.
Data set [11] has as its system tumor cells. As to conditions: in vitro cell models; cited from earlier work.
In data set [12] the test system is Hepa1-6. As to conditions: 30 mg/kg intraperitoneal injection, 14 consecutive days; cited from earlier work.
Data set [13] can be described thus: physchem. As to conditions: deionized water, 37 °C, thermodynamic from solid.
Setting [14] is: Hepa1-6, oral 40 µmol/kg/d, 2 weeks.

Converted amounts (≈) assume the structure as drawn.

farnesyltransferase (FTase), sequence (P49356 whole entry, one chain of several): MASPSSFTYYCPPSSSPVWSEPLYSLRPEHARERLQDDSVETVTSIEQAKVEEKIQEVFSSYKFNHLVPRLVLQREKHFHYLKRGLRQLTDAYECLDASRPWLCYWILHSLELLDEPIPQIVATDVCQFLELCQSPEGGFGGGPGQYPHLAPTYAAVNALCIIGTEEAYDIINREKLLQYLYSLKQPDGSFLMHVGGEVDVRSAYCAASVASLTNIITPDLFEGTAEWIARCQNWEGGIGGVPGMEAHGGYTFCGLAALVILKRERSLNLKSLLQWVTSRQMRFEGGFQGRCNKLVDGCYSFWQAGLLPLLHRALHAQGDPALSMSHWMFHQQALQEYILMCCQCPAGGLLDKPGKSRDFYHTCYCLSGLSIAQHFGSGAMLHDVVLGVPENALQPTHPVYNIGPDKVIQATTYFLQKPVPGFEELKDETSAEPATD

Turning to `C=C1C(=O)O[C@@H]2[C@H]3C(C)=CC[C@@]34O[C@@]4(C)CC[C@@H]12` [Arg, Arglabin], the “Suppression Rate (%)” value in [1] (1 µM) stood at 42.5%; in data set [1] (10 µM), 73.2%. Besides, the “CCR2 mRNA suppression rate in MDSCs (%)” value in data set [2] (1 µM) is 22.3%; in [2] (10 µM) it was 69.7%. Further, the “Tumor Inhibition Rate (%)” value is 95.86% in data set [3] (mouse, in vivo, po); 34.94% in data set [6] (mouse, in vivo, po); 12.87% in [7] (mouse, in vivo, po). Moreover, the “Tumor weight” value amounted to 0.04 ± 0.03 g in data set [3] (mouse, in vivo, po); 5.18 ± 0.61 g in [4]; 5.31 ± 0.51 g in data set [6] (mouse, in vivo, po); 1.58 ± 0.21 g in data set [7] (mouse, in vivo, po). In data set [4], the “Tumor Suppression Rate (%)” value is listed as 39.43%. Besides, the “Spleen MDSCs (%)” value in [5] was determined as 27.89±4.72 %. For the same compound, the “Spleen T cells (%)” value in [5] came out at 27.02±4.07%. Moreover, in data set [5], the “Tumor T cells(%)” value was 17.72±6.12 %. For the same compound, the “Tumor-associated MDSCs (%)” value in [5] turned out to be 27.0±7.93 %. Besides, the antitumor effects result in [6] (CT26, oral 80 µmol/kg/day, 3 weeks) is reported as “tumor-inhibiting effects”; in [7] (4T1, oral 40 µmol/kg/day, 3 weeks) it was “no significant antitumor effects”. Also, in data set [8], the IC50 result is “micromolar level”. Besides, in data set [9], the degradation rate is listed as 50%. Further, in [10], the oral bioavailability is on record as 5%.

As for `C=C1C(=O)O[C@H]2[C@H]1CCC(C)=C1CC[C@@](C)(O)[C@@H]12` [MCL, Micheliolide], in [3] (setting [14]), the “Tumor Inhibition Rate (%)” value was 70.52% and the “Tumor weight” value came to 0.27 ± 0.24 g. Also, the IC50 result in data set [11] is recorded as “micromolar range”. Besides, in data set [12], the “tumor weight inhibition rate” value is listed as 50%. For the same compound, in data set [13], the solubility stood at 62 µg/mL (≈ 250 µM).
